Assay results reported in patent US11154519B2, “Inhibitors and their uses” (MEDICAL RESEARCH COUNCIL, priority 2015, dated 2021).

Key:
[1] = molecular target: T1, PPP1R15B-PP1 (Homo sapiens, UniProt Q5SWA1); assay: SPR steady-state binding to R15B-PP1 holophosphatase; settings: SPR steady-state, MBP-R15B340-698-His captured on bio-PP1c, 10° C.; read-out: R15B (KD)
T1 construct: cDNAs encoding amino acids 325-636 of PPP1R15A and 340-698 of PPP1R15B were His-tagged and cloned into pMAL-c5x; made in house; host or cells: R15B: E. coli BL21-Gold (pMAL-c5x); PP1γ: Sf9 insect cells (baculovirus, pDW464)
Description: PPP1R15A^325-636 and PPP1R15B^340-698 were expressed and purified as follows: the cDNAs encoding amino acids 325-636 of PPP1R15A and 340-698 of PPP1R15B were His-tagged and cloned into pMAL-c5x. Recombinant PPP1R15A/B were expressed in BL21-Gold cells and purified by affinity chromatography on a HisTrap HP column (GE Healthcare), followed by a MBPTrap HP column (GE Healthcare). The proteins were analyzed on BOLT SDS-PAGE 4-12% Bis-Tris gels (Life Technologies) stained with SimplyBlue SafeStain (Life Technologies). cDNA encoding for human PP1γ was cloned into the baculovirus transfer vector pDW464 to add a biotin acceptor peptide (BAP). The vector also encodes for the E. coli biotin holoenzyme synthetase (BirA), so that BAP-tagged proteins can be biotinylated in vivo in Spodoptere frugiperda (Sf9) insect cells (Duffy et al., Anal. Biochem., 262, 122-128, 1998). The Bac-to-Bac baculovirus expression system (Life Technologies) was used to generate the recombinant bacmid DNA and Sf9 insect cells were used to amplify the viral stocks Cultures were harvested by centrifuging at 1,200 g for 15 minutes, cell pellets were resuspended in lysis buffer (50 mM Tris pH 7.4, 150 mM NaCl, 0.2% Triton, 5% Glycerol, 1 PiC tablet (Roche) per 50 ml and 0.2 mM PMSF) and followed by gentle sonication. The protein was first purified on a 5 ml HiTrap Q HP column (GE Healthcare) followed by a HiLoad 16/600 Superdex 200 column (GE Healthcare). The positive fractions confirmed by SDS-PAGE and western blot were pooled, concentrate to ˜1 μM and stored at −80° C.
A Biacore T200 (GE Healthcare) system was used for all experiments and biotinylated PP1 was captured using a Sensor Chip SA (GE Healthcare, catalog no BR-1005-31). The streptavidin coated surface was activated by 1 min injection with a solution of 50 mM NaOH and 1 M NaCl. Biotin-PP1 was diluted in the running buffer (50 mM Tris pH 7.5, 100 mM NaCl, 0.1 mM EGTA, 1 mM MnCl2, 0.05% Tween 20) and injected at approximately 300 nM concentration directly to streptavidin coated surface for 100 sec or to reach immobilization level of biotin-PP1 corresponding to ˜7000 RU. A blank immobilization was performed for one of the SA sensor chip surface to use as a reference.
With minor deviations, the same procedure and conditions were used in all binding experiments. Small molecules were stored as 50 mM stock solutions in 100% DMSO. Prior to determining binding constants, serial dilutions of either 12 or 8 concentrations of the compounds were prepared in the running buffer in a 96-well plate. Prior to each compound dilution series the regulatory subunit, R15A or R15B, was diluted to […] in the running buffer and captured on the biotin-PP1 surface, to form the holophosphatase complex on the sensor chip surface. Then, without regenerating the surface, the compound dilution series was injected onto the surface of the chip Sensorgrams were analyzed using the Biacore T200 evaluation software and the binding constants determined based on a steady-state model. Kinetic experiments are carried out using different concentrations of the compound and their respective equilibrium binding levels determined.
Surface Plasmon Resonance (SPR) was used to measure the binding affinity of compounds to the PPP1R15A/B-PP1 phosphatase complex. Biotin acceptor peptide (BAP) was fused to the N-terminus of PP1γ, which enables the biotinylation of the BAP-tagged protein in Sf9 insect cells. After purification the BAP-PP1γ protein was captured on a streptavidin sensor chip (SA-chip, GE healthcare) to a response level of ˜5.000 RU. Using controlled biotinylation enables orientated and uniform immobilization on the sensor chip surface. The PP1γ was then used to capture PPP1R15A/B and form a holophosphatase complex on the surface of the streptavidin chip. This complex can then be used to test binding of compounds. 10 μM PPP1R15A/B protein concentration was used to form the holophosphatase complex during a 80 s injection. […]

[2] = test system: R15A or R15B; assay: Selective binding towards R15A or R15B (based on SPR); set-up: species or system human
Description: In one embodiment, the compounds of formula IB inhibit PPP1R15A and PPP1R15B. Inhibition of PPP1R15A and PPP1R15B can be determined from binding analysis. For example, binding can be analysed using SPR (surface plasmon resonance) to obtain KD values. A PPP1R15A and PPP1R15B inhibitor may be defined as a compound where the difference in KD values between R15A and R15B is no more than about 3 fold.
Small molecules were stored as 50 mM stock solutions in 100% DMSO. Prior to determining binding constants, serial dilutions of either 12 or 8 concentrations of the compounds were prepared in the running buffer in a 96-well plate. Prior to each compound dilution series the regulatory subunit, MBP-R15A^325-636-His or MBP-R15B^340-698-His, was diluted to 10 μM in the running buffer and captured on the bio-PP1c surface at a flow rate of 30 μl/min for 1 minute to form the holophosphatase complex on the sensor chip surface. This was followed by 1 minute stabilization period, to wash off any unspecific binding. Then, without regenerating the surface, the compound dilution series was injected onto the surface of the chip at a flow rate of 30 μl/min for 1 minute, followed by 2 minutes dissociation time. After each dilution series the surface was regenerated using 3 M NaCl for 90 seconds. After regeneration, SPR responses generally returned to base levels and the bio-PP1c surface was ready for the next compound dilution series. In order to be able to correct for small variations in DMSO concentration between samples, eight solvent samples ranging from 0.06 to 8% DMSO were injected every 50th cycle. The flow cell temperature was 10° C.
Sensorgrams were analyzed using the Biacore T200 evaluation software and the binding constants determined based on a steady-state model. Kinetic experiments are carried out using different concentrations of the compound and their respective equilibrium binding levels determined.

[3] = test system: protein synthesis; assay: Assessment of translation rates (35S-methionine labelling); type: cell-based; settings: for Effect on translation: 35S-methionine labelling of cells; for Effect on translation ⇒ Inhibits: target(s) concluded to be inhibited
Description: Cells (90,000 cells/ml) were plated in 12-well plates, treated as indicated, labelled with 100 μCi/mI 35S-methionine (Hartmann Analytic) for 10 minutes at 37° C., washed with ice-cold PBS and lysed in 120 μl Laemmli Buffer. Lysates were boiled at 95° C. for 5 minutes, sonicated and resolved on 4-12% Bolt Bis-Tris Plus Gels (Thermo Fisher Scientific). Gels were then stained with InstantBlue (Expedeon) and analyzed by phosphorimaging and quantified using ImageJ.
By monitoring translation rates as described above, the activities of R15A, R15B and R15A/B inhibitors can be defined as follows (also shown in FIG. 12). An R15A inhibitor has no effect on translation in unstressed cells but prolongs translation attenuation following stress. A selective R15B inhibitor transiently attenuate protein synthesis because R15A compensates for the inhibition of R15B.

T1 sequence (Q5SWA1 340-698): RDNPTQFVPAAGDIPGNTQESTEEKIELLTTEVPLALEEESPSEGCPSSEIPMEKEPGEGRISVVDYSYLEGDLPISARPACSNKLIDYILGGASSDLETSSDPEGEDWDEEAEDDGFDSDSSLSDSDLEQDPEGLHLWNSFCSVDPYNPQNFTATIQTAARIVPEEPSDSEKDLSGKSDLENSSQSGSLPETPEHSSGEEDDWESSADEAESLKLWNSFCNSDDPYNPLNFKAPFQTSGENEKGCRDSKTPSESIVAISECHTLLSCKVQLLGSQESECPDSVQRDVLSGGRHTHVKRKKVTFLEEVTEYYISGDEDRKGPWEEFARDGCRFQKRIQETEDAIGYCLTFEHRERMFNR
T1 sequence (P36873 whole entry partner, the tested form may be a part): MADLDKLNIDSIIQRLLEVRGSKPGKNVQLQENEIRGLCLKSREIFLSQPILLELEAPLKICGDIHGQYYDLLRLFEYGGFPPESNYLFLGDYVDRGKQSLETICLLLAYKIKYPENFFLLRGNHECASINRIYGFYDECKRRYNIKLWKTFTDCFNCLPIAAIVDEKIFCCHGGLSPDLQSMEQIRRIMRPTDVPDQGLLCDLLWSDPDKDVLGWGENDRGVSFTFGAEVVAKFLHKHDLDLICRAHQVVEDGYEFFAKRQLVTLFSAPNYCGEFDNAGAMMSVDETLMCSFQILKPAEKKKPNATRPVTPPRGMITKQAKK

Compound | Kd [1] [µM] | Selective binding towards R15A or R15B (based on SPR) [2] | Effect on translation [3] | Effect on translation ⇒ Inhibits [3] | protein synthesis rates ([3]; unstressed cells, 10 μM, FIG. 12)
[H]/N=C(\N)NN=Cc1ccc(Cl)cc1 [Compound 1, (E)-2-((4-chlorophenyl)methylene)hydrazine-1-carboximidamide] | 7.33 ± 1.79 | R15AB (A PPP1R15A and PPP1R15B inhibitor may be defined as a compound where the difference in KD values between R15A and R15B is no more than about 3 fold) |  |  | 
N=C(N)N/N=C/c1cc(Cl)c(Cl)c(Cl)c1 [Compound 3, (E)-2-(3,4,5-trichlorobenzylidene)hydrazine-1-carboximidamide] | 0.149 | R15AB (A PPP1R15A and PPP1R15B inhibitor may be defined as a compound where the difference in KD values between R15A and R15B is no more than about 3 fold) | Persistent |  | 
[H]/N=C(\N)NN=Cc1cc(Cl)c(F)c(Cl)c1 [Compound 5, (E)-2-(3,5-dichloro-4-fluorobenzylidene)hydrazine-1-carboximidamide] | 2.67 ± 0.4 | R15AB (A PPP1R15A and PPP1R15B inhibitor may be defined as a compound where the difference in KD values between R15A and R15B is no more than about 3 fold) |  |  | 
[H]/N=C(\N)NN=Cc1ccc(Cl)c(Cl)c1Cl [Compound 6, (E)-2-(2,3,4-trichlorobenzylidene)hydrazine-1-carboximidamide] | 9.09 ± 1.37 | R15AB (A PPP1R15A and PPP1R15B inhibitor may be defined as a compound where the difference in KD values between R15A and R15B is no more than about 3 fold) | Persistent |  | 
[H]/N=C(\N)NN=Cc1cc(F)c(Cl)cc1Cl [Compound 7, (E)-2-(2,4-dichloro-5-fluorobenzylidene)hydrazine-1-carboximidamide] | 4.34 ± 2.35 | R15AB (A PPP1R15A and PPP1R15B inhibitor may be defined as a compound where the difference in KD values between R15A and R15B is no more than about 3 fold) |  | R15AB | 
[H]/N=C(\N)NN=Cc1ccc(Cl)c(F)c1 [Compound 8, (E)-2-(4-chloro-3-fluorobenzylidene)hydrazine-1-carboximidamide] | 11.3 | R15AB (A PPP1R15A and PPP1R15B inhibitor may be defined as a compound where the difference in KD values between R15A and R15B is no more than about 3 fold) |  | R15AB | 
[H]/N=C(\N)NN=Cc1cccc(Cl)c1Br [Compound 9, (E)-2-(2-bromo-3-chlorobenzylidene)hydrazine-1-carboximidamide] | 39.6 ± 5.9 | R15A (A “selective inhibitor” may be defined as a compound where the difference in KD values between R15A and R15B is greater than 3 fold) |  | Off | 
[H]/N=C(\N)NN=Cc1cc(Cl)cc(Cl)c1Cl [Compound 10, (E)-2-(2,3,5-trichlorobenzylidene)hydrazine-1-carboximidamide] | 0.44 ± 0.09 | R15AB (A PPP1R15A and PPP1R15B inhibitor may be defined as a compound where the difference in KD values between R15A and R15B is no more than about 3 fold) | Persistent |  | persistently inhibits protein synthesis
[H]/N=C(\N)NN=Cc1ccc(F)c(Cl)c1 [Compound 15, (E)-2-(3-chloro-4-fluorobenzylidene)hydrazine-1-carboximidamide] | 7.68 ± 2.18 | R15AB (A PPP1R15A and PPP1R15B inhibitor may be defined as a compound where the difference in KD values between R15A and R15B is no more than about 3 fold) |  |  | 
N=C(N)N/N=C/c1cc(Cl)c(Cl)cc1F [Compound 18, (E)-2-(4,5-dichloro-2-fluorobenzylidene)hydrazine-1-carboximidamide] | 4.85 ± 0.14 | R15AB (A PPP1R15A and PPP1R15B inhibitor may be defined as a compound where the difference in KD values between R15A and R15B is no more than about 3 fold) |  |  | 
